The experiment has as its target T1, Aromatase [1-48] (Homo sapiens, UniProt P11511).
T1 construct: 1-48
T1 sequence (P11511 whole entry): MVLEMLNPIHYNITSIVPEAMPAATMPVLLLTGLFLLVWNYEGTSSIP
Kind of experiment: Biological Assay. As to the method: The inhibitory activities of the compounds toward aromatase were determined in vitro using human placental microsomes and [1,2,6,7-3H]-androstenedione.

Molecules are shown by their SMILES.

For `Oc1ccc(C2CC(n3ccnc3)c3ccc(O)cc3O2)cc1` (stereo not drawn) [2,4-Trans-4',7-dihydroxy-4-imidazolyl-7-methoxyflavan, 3e], the IC50 worked out at 77 nM. Under `COc1ccc2c(c1)OC(c1ccc(C#N)cc1)CC2n1ccnc1` (stereo not drawn) [2,4-Trans-4'-cyano-4-imidazolyl-7-methoxyflavan, 3c] stands 133 nM; under `COc1ccc2c(c1)OC(c1cccc(O)c1)CC2n1ccnc1` (stereo not drawn) [2,4-Trans-3'-hydroxy-4-imidazolyl-7-methoxyflavan, 3a], 130 nM.

In turn, `COc1ccc2c(c1)OC(c1ccc(Cl)cc1)CC2n1ccnc1` (trans isomer) [2,4-Trans-4'-chloro-4-imidazolyl-7-methoxyflavan, 3b] yielded an IC50 of 200 nM.

For `COc1ccc2c(c1)OC(c1ccc(O)cc1)CC2n1ccnc1` (stereo not drawn) [2,4-Trans-4'-hydroxy-4-imidazolyl-7-methoxyflavan, 3d], half-maximal inhibition (IC50) required 40 nM.
